Test results: ChEMBL document CHEMBL4706515, “Discovery of new [1,2,4] Triazolo[1,5-a]Pyrimidine derivatives that Kill gastric cancer cells via the mitochondria pathway” (Eur J Med Chem, 2020)
Active and inactive are the calls of the source. No cut-off for these calls is given here.

What was measured:
[1] = tested on: MGC-803; test: Antiproliferative activity against human MGC-803 cells assessed as inhibition of cell growth at 10 uM measured after 72 hrs by SRB assay relative to control; format: functional
[2] = tested on: BGC-823; test: Antiproliferative activity against human BGC-823 cells assessed as inhibition of cell growth at measured after 72 hrs by SRB assay; format: functional
[3] = tested on: EJ; test: Antiproliferative activity against human EJ cells assessed as inhibition of cell growth at measured after 72 hrs by SRB assay; format: functional
[4] = tested on: GES1; test: Cytotoxicity against human GES1 cells assessed as inhibition of cell growth at measured after 72 hrs by SRB assay; format: cell-based; conditions: ges1, 72 h
[5] = tested on: SGC-7901; test: Antiproliferative activity against human SGC-7901 cells assessed as inhibition of cell growth at measured after 72 hrs by SRB assay; format: functional
[6] = tested on: MKN-45; test: Antiproliferative activity against human MKN-45 cells assessed as inhibition of cell growth at measured after 72 hrs by SRB assay; format: functional
[7] = tested on: MGC-803; test: Antiproliferative activity against human MGC-803 cells assessed as inhibition of cell growth at measured after 72 hrs by SRB assay; format: functional
[8] = tested on: A549; test: Antiproliferative activity against human A549 cells assessed as inhibition of cell growth at measured after 72 hrs by SRB assay; format: functional
[9] = tested on: HGC-27; test: Antiproliferative activity against human HGC-27 cells assessed as inhibition of cell growth at measured after 72 hrs by SRB assay; format: functional

Compound | inhibition at 10 µM [1] [%] | further results
CCc1cc(Nc2ccc(C(=O)/C=C/c3cccc(Br)n3)cc2)n2nc(SCc3ccccc3)nc2n1 | 63 | –
O=C(/C=C/c1cccc(Br)n1)c1ccc(Nc2c3c(nc4ncnn24)CCC3)cc1 | 49.9 | –
Cc1cc(Nc2ccc(C(=O)/C=C/c3cccc(Br)n3)cc2)n2nc(SCc3ccccc3)nc2n1 | 90.2 | –
Cc1cc(Nc2ccc(N3CCN(C)CC3)cc2)n2nc(SCc3nc4ccccc4[nH]3)nc2n1 | 78.1 | –
Cc1cc(Nc2ccc(C(=O)/C=C/c3cccc(Br)n3)cc2)n2nc(SCc3ccc([N+](=O)[O-])cc3)nc2n1 | 91.6 | –
Cc1cc(Nc2ccc(C(=O)/C=C/c3cccc(Br)n3)cc2)n2nc(SCc3ccc(Cl)cc3)nc2n1 | 90.2 | –
Cc1cc(Nc2ccc(C(=O)/C=C/c3cccc(Br)n3)cc2)n2nc(SCc3ccccc3[N+](=O)[O-])nc2n1 | 92.3 | –
Cc1cc(Nc2ccccc2)n2nc(SCc3nc4ccccc4[nH]3)nc2n1 | 22.4 | –
C#CCSc1nc2nc(-c3ccccc3)cc(Nc3ccc(C(=O)/C=C/c4cccc(Br)n4)cc3)n2n1 | 56.3 | –
O=c1[nH]cc(F)c(=O)[nH]1 [FLUOROURACIL] | – | GI50 [2]: Active; GI50 [3]: Active; Activity [4]: Toxic; GI50 [5]: Active; GI50 [6]: Active; GI50 [7]: Active; GI50 [8]: Active; GI50 [9]: Active
O=C(/C=C/c1cccc(Br)n1)c1ccc(Nc2cc(-c3ccccc3)nc3nc(SCc4ccccc4)nn23)cc1 | 38.3 | –
Cc1cc(Nc2ccc(C(=O)/C=C/c3ccccc3)cc2)n2nc(SCc3nc4ccccc4[nH]3)nc2n1 | 94.5 | –
Cc1cc(Nc2ccc(C(=O)/C=C/c3cccc(Br)n3)cc2)n2ncnc2n1 | 58.4 | –
Cc1cc(Nc2ccc(C(=O)/C=C/c3cccc(Br)n3)cc2)n2nc(SCc3ccc(C(F)(F)F)cc3)nc2n1 | 96.6 | –
Cc1cc(Nc2cc(-c3ccccc3)[nH]n2)n2nc(SCc3nc4ccccc4[nH]3)nc2n1 | 78.4 | –
Cc1cc(Nc2ccc(C(=O)/C=C/c3cccc(Br)n3)cc2)n2nc(SCc3ccc(Br)cc3)nc2n1 | 96.3 | –
Cc1cc(Nc2ccc(C(=O)/C=C/c3cccc(Br)n3)cc2)n2nc(SCCCc3ccccc3)nc2n1 | 76.7 | –
Cc1cc(Nc2ccc(C(=O)/C=C/c3ccc(Br)cn3)cc2)n2nc(SCc3nc4ccccc4[nH]3)nc2n1 | 96.8 | GI50 [2]: 640 nM; GI50 [3]: inactive; Activity [4]: Non-Toxic; GI50 [5]: 640 nM; GI50 [6]: 640 nM; GI50 [7]: 640 nM; GI50 [8]: inactive; GI50 [9]: 640 nM
C#CCSc1nc2nc(C)cc(Nc3ccc(C(=O)/C=C/c4cccc(Br)n4)cc3)n2n1 | 94.4 | –
Cc1cc(Nc2ccc(C(=O)/C=C/c3cccc(Br)n3)cc2)n2nc(SCc3ccc(F)cc3)nc2n1 | 93.3 | –
Cc1nc2nc(SCc3ccc(Cl)cc3)nn2c(Nc2ccc(C(=O)/C=C/c3cccc(Br)n3)cc2)c1C | 72.5 | –
